Test results: the supplement of paper PMC10307832

Columns and labels:
Assay in all cases: relative viability (nuclei count vs DMSO), 5 days (fraction); higher = more cells survive
ABC-1 = test system: ABC-1
Summary of the method: (§1)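 Nuclei were stained with Hoechst during a one-step fixation (final 0.05% Triton X-100, 1% formaldehyde, 1 ug/ml Hoechst) carried out 5 days after dosing, then counted on 4× images. The cells, lung cancer lines in 1536-well plates, had been dosed by pin tool the day after seeding with one drug alone or a fixed anchor-drug dose plus five library-drug doses (not always all listed) in √10 steps. Relative viability is the nuclei count in treated wells divided by that in vehicle wells, and each value is the median of duplicate plates.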

SW 900 = test system: SW 900
Summary of the method: as §1

NCI-H1755 = test system: NCI-H1755
Summary of the method: as §1

NCI-H2170 = test system: NCI-H2170
Summary of the method: as §1

NCI-H1437 = test system: NCI-H1437
Summary of the method: as §1

NCI-H1395 = test system: NCI-H1395
Summary of the method: as §1

EMC-BAC-2 = test system: EMC-BAC-2
Summary of the method: as §1

SK-LU-1 = test system: SK-LU-1
Summary of the method: as §1

PC-14 = test system: PC-14
Summary of the method: as §1

LCLC-97TM1 = test system: LCLC-97TM1
Summary of the method: as §1

LOU-NH91 = test system: LOU-NH91
Summary of the method: as §1

NCI-H1650 = test system: NCI-H1650
Summary of the method: as §1

NCI-H2009 = test system: NCI-H2009
Summary of the method: as §1

EPLC-272H = test system: EPLC-272H
Summary of the method: as §1

NCI-H522 = test system: NCI-H522
Summary of the method: as §1

HCC-78 = test system: HCC-78
Summary of the method: as §1

HCC-827 = test system: HCC-827
Summary of the method: as §1

LK-2 = test system: LK-2
Summary of the method: as §1

CAL-12T = test system: CAL-12T
Summary of the method: as §1

NCI-H2023 = test system: NCI-H2023
Summary of the method: as §1

UMC-11 = test system: UMC-11
Summary of the method: as §1

NCI-H596 = test system: NCI-H596
Summary of the method: as §1

NCI-H727 = test system: NCI-H727
Summary of the method: as §1

BEN = test system: BEN
Summary of the method: as §1

EKVX = test system: EKVX
Summary of the method: as §1

Nc1cccc2c1CN(C1CCC(=O)NC1=O)C2=O (stereo unspecified) [Lenalidomide] + N=C(N)NC(=N)NCCc1ccccc1 [Phenformin] (partner 250 µM)
relative viability (ABC-1; first compound 0.253 µM): 0.209 | relative viability (ABC-1; first compound 0.8 µM): 0.216 | relative viability (ABC-1; first compound 2.53 µM): 0.27 | relative viability (ABC-1; first compound 8 µM): 0.258 | relative viability (SW 900; first compound 0.253 µM): 0.583 | relative viability (SW 900; first compound 2.53 µM): 0.747 | relative viability (SW 900; first compound 8 µM): 0.688 | relative viability (NCI-H1755; first compound 0.253 µM): 0.627 | relative viability (NCI-H1755; first compound 0.8 µM): 0.615 | relative viability (NCI-H1755; first compound 2.53 µM): 0.682 | relative viability (NCI-H1755; first compound 8 µM): 0.536 | relative viability (NCI-H2170; first compound 0.253 µM): 0.47 | relative viability (NCI-H2170; first compound 0.8 µM): 0.425 | relative viability (NCI-H2170; first compound 2.53 µM): 0.414 | relative viability (NCI-H2170; first compound 8 µM): 0.481 | relative viability (NCI-H1437; first compound 0.253 µM): 0.276 | relative viability (NCI-H1437; first compound 0.8 µM): 0.248 | relative viability (NCI-H1437; first compound 2.53 µM): 0.839 | relative viability (NCI-H1437; first compound 8 µM): 0.363 | relative viability (NCI-H1395; first compound 0.253 µM): 0.436 | relative viability (NCI-H1395; first compound 0.8 µM): 0.403 | relative viability (NCI-H1395; first compound 2.53 µM): 0.508 | relative viability (NCI-H1395; first compound 8 µM): 0.419 | relative viability (EMC-BAC-2; first compound 0.253 µM): 0.527 | relative viability (EMC-BAC-2; first compound 0.8 µM): 0.525 | relative viability (EMC-BAC-2; first compound 2.53 µM): 0.598 | relative viability (EMC-BAC-2; first compound 8 µM): 0.459 | relative viability (SK-LU-1; first compound 0.253 µM): 0.539 | relative viability (SK-LU-1; first compound 0.8 µM): 0.595 | relative viability (SK-LU-1; first compound 2.53 µM): 0.693 | relative viability (SK-LU-1; first compound 8 µM): 0.472 | relative viability (PC-14; first compound 0.253 µM): 0.637 | relative viability (PC-14; first compound 0.8 µM): 0.454 | relative viability (PC-14; first compound 2.53 µM): 0.606 | relative viability (PC-14; first compound 8 µM): 0.548 | relative viability (LCLC-97TM1; first compound 0.253 µM): 0.378 | relative viability (LCLC-97TM1; first compound 0.8 µM): 0.409 | relative viability (LCLC-97TM1; first compound 2.53 µM): 0.485 | relative viability (LCLC-97TM1; first compound 8 µM): 0.365 | relative viability (LOU-NH91; first compound 0.253 µM): 0.681 | relative viability (LOU-NH91; first compound 0.8 µM): 0.584 | relative viability (LOU-NH91; first compound 2.53 µM): 0.75 | relative viability (LOU-NH91; first compound 8 µM): 0.491 | relative viability (NCI-H1650; first compound 0.8 µM): 0.376 | relative viability (NCI-H1650; first compound 2.53 µM): 0.554 | relative viability (NCI-H1650; first compound 8 µM): 0.483 | relative viability (NCI-H2009; first compound 0.253 µM): 0.454 | relative viability (NCI-H2009; first compound 0.8 µM): 0.517 | relative viability (NCI-H2009; first compound 2.53 µM): 0.518 | relative viability (NCI-H2009; first compound 8 µM): 0.528 | relative viability (EPLC-272H; first compound 0.253 µM): 0.282 | relative viability (EPLC-272H; first compound 0.8 µM): 0.341 | relative viability (EPLC-272H; first compound 2.53 µM): 0.318 | relative viability (EPLC-272H; first compound 8 µM): 0.224 | relative viability (NCI-H522; first compound 0.253 µM): 0.645 | relative viability (NCI-H522; first compound 2.53 µM): 0.643 | relative viability (NCI-H522; first compound 8 µM): 0.573 | relative viability (HCC-78; first compound 0.253 µM): 0.825 | relative viability (HCC-78; first compound 0.8 µM): 0.625 | relative viability (HCC-78; first compound 2.53 µM): 0.909 | relative viability (HCC-78; first compound 8 µM): 0.448 | relative viability (HCC-827; first compound 0.253 µM): 0.408 | relative viability (HCC-827; first compound 0.8 µM): 0.425 | relative viability (HCC-827; first compound 2.53 µM): 0.432 | relative viability (HCC-827; first compound 8 µM): 0.437 | relative viability (LK-2; first compound 0.253 µM): 0.575 | relative viability (LK-2; first compound 0.8 µM): 0.262 | relative viability (LK-2; first compound 2.53 µM): 0.656 | relative viability (LK-2; first compound 8 µM): 0.229 | relative viability (CAL-12T; first compound 0.253 µM): 0.548 | relative viability (CAL-12T; first compound 0.8 µM): 0.633 | relative viability (CAL-12T; first compound 2.53 µM): 0.639 | relative viability (CAL-12T; first compound 8 µM): 0.647 | relative viability (NCI-H2023; first compound 0.253 µM): 0.405 | relative viability (NCI-H2023; first compound 0.8 µM): 0.522 | relative viability (NCI-H2023; first compound 2.53 µM): 0.431 | relative viability (NCI-H2023; first compound 8 µM): 0.407 | relative viability (UMC-11; first compound 0.253 µM): 0.317 | relative viability (UMC-11; first compound 0.8 µM): 0.328 | relative viability (UMC-11; first compound 2.53 µM): 0.389 | relative viability (UMC-11; first compound 8 µM): 0.339 | relative viability (NCI-H596; first compound 0.253 µM): 0.752 | relative viability (NCI-H596; first compound 2.53 µM): 0.911 | relative viability (NCI-H596; first compound 8 µM): 0.635 | relative viability (NCI-H727; first compound 0.253 µM): 0.613 | relative viability (NCI-H727; first compound 0.8 µM): 0.53 | relative viability (NCI-H727; first compound 2.53 µM): 0.505 | relative viability (NCI-H727; first compound 8 µM): 0.423 | relative viability (BEN; first compound 0.253 µM): 0.287 | relative viability (BEN; first compound 0.8 µM): 0.268 | relative viability (BEN; first compound 2.53 µM): 0.285 | relative viability (BEN; first compound 8 µM): 0.222 | relative viability (EKVX; first compound 0.253 µM): 0.23 | relative viability (EKVX; first compound 0.8 µM): 0.211 | relative viability (EKVX; first compound 2.53 µM): 0.241 | relative viability (EKVX; first compound 8 µM): 0.196
